Values quoted from earlier work, collected in EP1964566A1, “PREPARATION WITH IMPROVED BIOABSORBABILITY OF SAPROPTERIN HYDROCHLORIDE” (Asubio Pharma Co., Ltd., priority 2005, dated 2007).

Conditions: in vivo, po

bioavailability: 1-2%
Substance: sapropterin hydrochloride
